Measurements as given in patent US20060182683A1, “Methods for reduced renal uptake of protein conjugates” (Center for Molecular Medicine and Immunology, priority 1995, published 2006).

Assays:
[1] = tested on: GW39 colonic cancer xenograft bearing nude mice; test: Biodistribution of anti-CEA 99mTc-Fab′ NP-4 under L-lysine / poly-L-lysine treatment; format: in vivo
Excerpt: (§1) After cervical dislocation, the animals were dissected.

BALB/c mice = test: Kidney uptake and biodistribution of 99mTc-Fab′ NP-4 under lysine treatment; format: in vivo; conditions: for Kidney uptake, % of contr.: L-lysine 2000 μg/g
Method: as §1
(§2) L-lysine was injected i.p. in hourly intervals from 30 min before until 3 h after intravenous antibody injections (−30′, 1 h, 2 h, 3 h p.i.). […] At doses above this threshold, a strong dose-effect relationship was found. At 4×2000 μg/g, kidney uptake was reduced to 19±1% of the untreated control group at 4 h p.i.

[2] = tested on: nude mice bearing GW39 colonic cancer xenografts; test: Kidney uptake and dosimetry of 188Re-Fab′ Mu-9 under L-lysine treatment; format: in vivo
Excerpt: as §1
No effect on the uptake in the tunor or other organs was observed.

[3] = tested on: GW39 colonic cancer xenograft bearing nude mice; test: Dosimetry of 111In/88Y-Bz-DTPA-Fab′ MN-14 under L-lysine treatment; format: in vivo; conditions: L-lysine four times 2000 μg/g i.p.
Method: as §1
To test the effectiveness of L-lysine in reduction of kidney uptake of indium and yttrium-labeled Fab′ fragments, a mixture of ^111In and ^88Y-labeled Fab′ fragments of the anti-CEA antibody MN-14 were injected into GW39 colon carcinoma bearing nude mice (injected with four times 2000 μg/g L-lysine; the control group were untreated). FIG. 4 and Table 4 suns the results.

mice [4] = test: Kidney uptake of 125I-labeled Fab′ NP-4 and dosimetry for 131I-labeled Fab′ under L-lysine; format: in vivo
Excerpt: as §1

mice [5] = test: Kidney uptake and dosimetry of yttrium-labeled F(ab′)2 of anti-CD22 LL2 under L-lysine; format: in vivo; conditions: Lys treated
mice [6] = test: Maximum tolerated dose and toxicity of lysine and poly-lysine; format: in vivo
Excerpt: Comparison of the results in the control mice with those in the mice that receive the lysine and/or poly-lysine allows determination of the optimal dosage required to achieve the desired effect on kidney uptake of radioactivity. Determination of the dosage of lysine and/or poly-lysine that can be tolerated before toxic effects are observed can be achieved by physiological examination and histological observation of organs by methods. The optimal dosages of lysine and/or poly-lysine that are determined using the mouse model are used to guide the determination of appropriate dosage levels in human subjects using a standard dosage escalation regimen. Methods for determining effective dosages of lysine and/or poly-lysine for reducing kidney uptake are further illustrated in the Examples, below.
as §2

mice [7] = test: Kidney uptake of 111In- and 88Y-labeled F(ab)2 fragments of MN-14; format: in vivo
Excerpt: as §1

mice [8] = test: Biodistribution of 99mTc-Fab′ NP-4 under poly-L-lysine of different molecular weight and lysine/poly-lysine mixtures; conditions: for Blood level of 99mTc-Fab′ NP-4 / Kidney uptake of 99mTc-Fab′ NP-4 / Kidney uptake, % control / Liver uptake of 99mTc-Fab′ NP-4 / Lungs uptake of 99mTc-Fab′ NP-4 / Spleen uptake of 99mTc-Fab′ NP-4: 15-30 kD, 4 h p.i.
Method: Female BALB/c mice, 19 to 22 g of weight, 4 to 5 weeks of age (Charles River Laboratories, Boston, Mass.) were used as non-tumor-bearing animals. For a human tumor xenograft model, the human colon carcinoma cell line GW39 (Primus et al supra) was grown subcutaneously in 5- to 6-week-old female athymic mice (Harlan, Madison, Wis.). Animals were injected intravenously into the tail vein with approximately 5-10 μg of antibody fragment protein (i.e., 25-40 μCi of ^99mTc, ^188Re, and ^111In, resp.; 4 μCi of ^88Y, and 10 μCi of ^125I, respectively).
The mice were sacrificed after 4 h and 24 h for ^99mTc-labeled antibodies, and after 4, 24, 72, 96 and 168 h for ^125I, ^111In, ^88Y and ^188Re-labeled antibodies. Mice were sacrificed by anesthesia with sodium pentobarbital and bled by cardiac puncture. After cervical dislocation, the animals were dissected. Radioactivity in the tumors and tissues (liver, spleen, kidney, lung, intestine, blood and bone) was determined by gamma scintillation counting using an injection standard to correct for physical decay.
L-lysine, D-lysine and L-arginine monohydrochloride salts (Sigma, St. Louis, Mo.) were dissolved in phosphate-buffered saline (PBS) at a concentration of 160 mg/ml. L-lysine ethyl ester dihydrochloride was dissolved in PBS to yield a concentration of 80 mg/ml. Poly-L-lysine (1-4 kDa and 15-30 kDa) were used as hydrochloride salts at concentration of 25 mg/ml and 10 mg/ml, respectively.
Animals were injected with the lysine and/or poly-lysine solutions intraperitoneally in amounts and at frequencies as shown below. Human patients were infused intravenously over a three-hour period with 1.5 liters of a commercially available amino acid solution starting 15 min before the antibody injection. The data of a total of 77 patients examined with ^99mTc-labeled anti-CEA Fab′ (NP-4: n=19; F023C5: n=58) were taken as controls (infused with the same volume of 0.9% saline instead of the amino acid solution).
To attempt to reduce the necessity of frequent injections of the kidney uptake reducing agent, polymeric substances of higher molecular weight were investigated.
To reach maximal effectiveness with as few injections as possible, combinations of lysine and poly-lysine were tested.

[9] = 131I-Fab′ NP-4, L-lysine 4 × 2 mg/g
[10] = 10 μg/g once 30′ before antibody
[11] = 20 μg/g once 30′ before antibody

## NCCCC[C@H](N)C(=O)O [L-lysine]
[1]; L-lysine 0.5 mg/g i.p. at −30′, 1, 2, 3 h, 4 h p.i.
  Kidney uptake, % of contr.: 63.0 % of contr.
[1]; L-lysine 0.5 mg/g i.p. at −30′, 1, 2, 3 h, 24 h p.i.
  Kidney uptake, % of contr.: 70.0 % of contr.
[1]; L-lysine 2 mg/g i.p. at −30′, 1, 2, 3 h, 4 h p.i.
  Kidney uptake, % of contr.: 29.7 % of contr.
[1]; L-lysine 2 mg/g i.p. at −30′, 1, 2, 3 h, 24 h p.i.
  Kidney uptake, % of contr.: 30.0 % of contr.
[1]; nude mice bearing human colonic xenografts
  influence on the tumor uptake or uptake in any other organ than the kidneys: no significant influence
BALB/c mice; 4×2000 μg/g i.p. in hourly intervals, 4 h p.i.
  kidney uptake of 99mTc-Fab′ NP-4, % of the untreated control group: 19±1%
BALB/c mice; injection 4x at −30′, 1, 2, 3 h, 4 h p.i.
  Kidney uptake, % of contr.: 15.5 % of contr.
BALB/c mice; injection once at −30′, 4 h p.i.
  Kidney uptake, % of contr.: 56.4 % of contr.
BALB/c mice; injection twice at −30′ and 1 h, 4 h p.i.
  Kidney uptake, % of contr.: 44.1 % of contr.
BALB/c mice; doses below four times 100 μg/g body weight, hourly intervals
  effect on kidney uptake of 99mTc-Fab′ NP-4: no significant effect
BALB/c mice; mouse, in vivo
  persistence of uptake reduction of 99mTc-Fab′: 24 h
[2]; 188Re-Fab′ Mu-9
  effect on the uptake in the tumor or other organs: No effect
  lys/contr. dose ratio, Blood: 0.79
  lys/contr. dose ratio, Bone: 0.89
  lys/contr. dose ratio, GW39: 1.23
  lys/contr. dose ratio, Kidney: 0.39
  lys/contr. dose ratio, Liver: 0.96
  lys/contr. dose ratio, Lung: 0.76
  lys/contr. dose ratio, Spleen: 0.94
[2]; 188Re-Mu-9 Fab′ dosimetry
  effect on the tumor dose: no effect on the tumor dose could be observed
  kidney dose, % of the renal dose in the control group: approximately 30%
[2]; 4 h p.i.
  kidney uptake of 188Re-Fab′ Mu-9, % of the untreated control: 29%
[3]
  Kidney dose relative to control (100%), based on 88Y: 18.8%
  Kidney dose relative to control (100%), based on 111In: 22.9%
Mice [4]; 125I-Fab′ NP-4, 4 h p.i.
  kidney uptake of iodine-labeled Fab′, % of the nontreated control: 38.7%
Mice [4]; [9]
  Lys/control dose ratio, Blood: 0.99
  Lys/control dose ratio, Kidney: 0.51
  Lys/control dose ratio, Liver: 0.94
  Lys/control dose ratio, Lung: 0.95
  Lys/control dose ratio, Spleen: 0.81
Mice [4]; calculated for a 131I-labeled Fab′ fragment
  reduction of the absorbed dose to the kidney: 50%
Mice [5]
  Kidney dose, % control: 50.9 % control
Mice [5]; 4 h p.i.
  Kidney uptake, % control: 58.5 % control
Mice [5]; 48 h p.i.
  Kidney uptake, % control: 49.6 % control
Mice [6]; 4×2500 μg/g, monitored for three months
  tolerability at the MTD: tolerated without any obvious short or long term toxicity
Mice [6]; 4× injected i.p. in hourly intervals
  maximum tolerated dose (MTD): 2500 µg/g
Mice [6]; above 4×2500 μg/g
  toxicity at doses higher than the MTD: began to develop fluid in the body cavities
Mice [7]; F(ab′)2 fragments
  persistence of reduction of uptake: persisted for several days
Mice [7]; lysine treatment
  kidney uptake of 111In- and 88Y-F(ab′)2, % of control: approximately 30%

## NCCCC[C@@H](N)C(=O)O [D-lysine]
BALB/c mice; four hourly injections i.p., same conditions as L-lysine
  lowering of kidney uptake compared with L-lysine: equally as effective as the L-isomer

## Poly-L-lysine [poly-L-lysine (15-30 kD)]
Mice [8]; 1×20 μg/g
  kidney uptake reduction: 50%
Mice [8]; [10]
  Blood level of 99mTc-Fab′ NP-4: 4.7 ± 0.3
  Kidney uptake of 99mTc-Fab′ NP-4: 73.9 ± 7.2
  Kidney uptake, % control: 57.8 % control
  Liver uptake of 99mTc-Fab′ NP-4: 7.3 ± 3.7
  Lungs uptake of 99mTc-Fab′ NP-4: 6.8 ± 4.3
  Spleen uptake of 99mTc-Fab′ NP-4: 3.7 ± 0.4
Mice [8]; [11]
  Blood level of 99mTc-Fab′ NP-4: 4.7 ± 0.2
  Kidney uptake of 99mTc-Fab′ NP-4: 55.7 ± 6.5
  Kidney uptake, % control: 43.6 % control
  Liver uptake of 99mTc-Fab′ NP-4: 4.6 ± 0.7
  Lungs uptake of 99mTc-Fab′ NP-4: 7.9 ± 3.2
  Spleen uptake of 99mTc-Fab′ NP-4: 3.8 ± 0.3
